The values that follow come from patent US7687435B2, “Benzoyl-substituted phenylalanineamides” (BASF Aktiengesellschaft, priority 2003, dated 2010).

For orientation: melting point means the temperature of the solid-liquid transition.

For data set [1], the system named is velvet leaf. As to the kind of experiment: greenhouse post-emergence herbicidal test, velvet leaf. Particulars: application rate 0.5 kg/ha. In kind it is in vivo, Abutilon theophrasti. An excerpt: (§1) The seeds of the test plants were sown separately for each species. For the post-emergence treatment, the test plants were first grown to a height of 3 to 15 cm, depending on the plant habit, and only then treated with the active ingredients which had been suspended or emulsified in water. For this purpose, the test plants were either sown directly and grown in the same containers, or they were first grown separately as seedlings and transplanted into the test containers a few days prior to treatment. The rate of application for the post-emergence treatment was 1.0, 0.5, 0.25, 0.125 or 0.0625 kg/ha of a.s. (active substance). Depending on the species, the plants were kept at 10-25° C. or 20-35° C. The test period extended over 2 to 4 weeks. During this time, the plants were tended, and their response to the individual treatments was evaluated. Evaluation was carried out using a scale from 0 to 100. 100 means no emergence of the plants, or complete destruction of at least the aerial parts, and 0 means no damage, or normal course of growth. The plants used in the greenhouse experiments belonged to the following species: [table]

Data set [2] has as its system cleavers harrif. Description: greenhouse post-emergence herbicidal test, cleavers harrif. Type of data set: in vivo, Galium aparine.
Source text: as §1

For data set [3], the system named is green foxtail. Description: greenhouse post-emergence herbicidal test, green foxtail. In kind it is in vivo, Setaria viridis.
Source text: as §1

Data set [4] has as its system pig weed. As to the kind of experiment: greenhouse post-emergence herbicidal test, pig weed. Type of data set: in vivo, Amaranthus retroflexus.
Source text: as §1

Data set [5] has as its system lambsquarters. As to the kind of experiment: greenhouse post-emergence herbicidal test, lambsquarters. In kind it is in vivo, Chenopodium album.
Source text: as §1

Data set [6] deals with black bindweed. Description: greenhouse post-emergence herbicidal test, black bindweed. In kind it is in vivo, Polygonum convolvulus.
Source text: as §1

Data set [7] concerns wild oat. As to the kind of experiment: greenhouse post-emergence herbicidal test, wild oat. Type of data set: in vivo, Avena fatua. As to conditions: application rate 0.5 kg/ha.
Source text: as §1

The structures appear in SMILES notation.

As to `CNC(=O)C(NC(=O)c1ccccc1OC(F)(F)F)C(O)c1ccccc1` (racemic) [Compound 5.36], the “post-emergence action on velvet leaf” value in data set [1] is listed as “very good”.

For the molecule `CNC(=O)C(NC(=O)c1ccc(F)cc1C(F)(F)F)C(O)c1ccccc1COC(C)=O` (stereo not shown) [Compound 3.62], the “post-emergence control of cleavers harrif” value in data set [2] (application rate 0.5 kg/ha) is “very good”. Moreover, the “post-emergence action against green foxtail” value in data set [3] (application rate 0.5 kg/ha) is listed as “very good”. For the same molecule, in data set [4] (application rate 0.5 kg/ha), the “post-emergence action against pig weed” value is given as “very good”. Moreover, the “post-emergence action against lambsquarters” value in data set [5] (application rate 0.5 kg/ha) was “very good”.

As for `CNC(=O)C(NC(=O)c1ccc(F)cc1C(F)(F)F)C(O)c1ccccc1COS(C)(=O)=O` (stereo not shown) [Compound 3.65], the “post-emergence action on black bindweed” value in data set [6] (application rate 0.5 kg/ha) is on record as “very good”. Also, the “post-emergence action against pig weed” value in data set [4] (application rate 0.5 kg/ha) is on record as “very good”. Besides, the “post-emergence action against lambsquarters” value in data set [5] (application rate 0.5 kg/ha) is recorded as “very good”.

For `CNC(=O)C(NC(=O)c1ccc(F)cc1C(F)(F)F)C(O)c1ccccc1CO` (stereo not shown) [Compound 3.61], the “post-emergence action on black bindweed” value in data set [6] (application rate 0.5 kg/ha) is listed as “very good”. Moreover, the “post-emergence control of cleavers harrif” value in data set [2] (application rate 0.5 kg/ha) is listed as “very good”. Moreover, the “post-emergence action against pig weed” value in data set [4] (application rate 0.5 kg/ha) is reported as “very good”. Further, the “post-emergence action against lambsquarters” value in data set [5] (application rate 0.5 kg/ha) is reported as “very good”.

Regarding `CNC(=O)C(NC(=O)c1ccc(F)cc1C(F)(F)F)C(OC(=O)COCCOCCOC)c1ccccc1COC(=O)COCCOCCOC` (stereo not shown) [Compound 3.96], the “post-emergence action on black bindweed” value in data set [6] (application rate 0.5 kg/ha) is reported as “very good”. Moreover, in data set [2] (application rate 0.5 kg/ha), the “post-emergence control of cleavers harrif” value is “very good”. Besides, the “post-emergence action against pig weed” value in data set [4] (application rate 0.5 kg/ha) is listed as “very good”. The “post-emergence action against lambsquarters” value in data set [5] (application rate 0.5 kg/ha) is on record as “very good”.

In the case of `CNC(=O)[C@@H](NC(=O)c1ccc(F)cc1C(F)(F)F)[C@H](O)c1cccc(F)c1C` [Compound 3.10], the “post-emergence action against green foxtail” value in data set [3] (application rate 1.00 kg/ha) was “very good”. Moreover, the “post-emergence action against pig weed” value in data set [4] (application rate 1.00 kg/ha) is listed as “very good”. Besides, in data set [5] (application rate 1.00 kg/ha), the “post-emergence action against lambsquarters” value was “very good”.

`CNC(=O)C(NC(=O)c1ccc(F)cc1C(F)(F)F)C(O)c1ccccc1OCc1ccccc1` (stereo not shown) [Compound 3.66]: the “post-emergence action against green foxtail” value in data set [3] (application rate 1.00 kg/ha) is given as “very good”. For the same molecule, the “post-emergence action against pig weed” value in data set [4] (application rate 1.00 kg/ha) is “very good”. The “post-emergence action against lambsquarters” value in data set [5] (application rate 1.00 kg/ha) was “very good”.

Take `CNC(=O)C(NC(=O)c1ccccc1SC(F)F)C(O)c1ccccc1` (racemic) [Compound 5.37]: the “post-emergence action on velvet leaf” value in data set [1] is on record as “controlled”. Moreover, the “post-emergence control of wild oat” value in data set [7] was “controlled”.

In turn, `CNC(=O)C(NC(=O)c1ccc(F)cc1C(F)(F)F)C(c1ccccc1)N(C=O)Cc1ccccc1` (stereo not shown) [Compound 3.43, N-[2-(N-Benzyl-N-formylamino)-1-methylcarbamoyl-2-phenylethyl]-4-fluoro-2-trifluoromethylbenzamide] displayed a melting point of 212 °C.

For `CNC(=O)C(NC(=O)c1ccccc1C(F)(F)F)C(O)c1ccccc1` (racemic) [Compound 3.2], in data set [3] (application rate 1.00 kg/ha), the “post-emergence action against green foxtail” value is “very good”. Further, in data set [4] (application rate 1.00 kg/ha), the “post-emergence action against pig weed” value is recorded as “very good”. For the same molecule, in data set [5] (application rate 1.00 kg/ha), the “post-emergence action against lambsquarters” value was “very good”.

Turning to `CNC(=O)[C@@H](NC(=O)c1ccc(F)cc1C(F)(F)F)[C@H](OC(=O)COCCOCCOC)c1ccc(F)c(F)c1F` [Compound 4.24], the “post-emergence control of cleavers harrif” value in data set [2] (application rate 0.5 kg/ha) is listed as “very good”. The “post-emergence action against green foxtail” value in data set [3] (application rate 0.5 kg/ha) is recorded as “very good”. Besides, the “post-emergence action against pig weed” value in data set [4] (application rate 0.5 kg/ha) was “very good”. In addition, the “post-emergence action against lambsquarters” value in data set [5] (application rate 0.5 kg/ha) is recorded as “very good”.

As for `CNC(=O)C(NC(=O)c1ccc(F)cc1C(F)(F)F)C(OC(=O)N(C)C)c1cccc(N)c1` (racemic) [Compound 3.123], the “post-emergence action on black bindweed” value in data set [6] (application rate 1.00 kg/ha) was “very good”. For the same molecule, in data set [4] (application rate 1.00 kg/ha), the “post-emergence action against pig weed” value is recorded as “very good”. Also, the “post-emergence action against lambsquarters” value in data set [5] (application rate 1.00 kg/ha) is on record as “very good”.

On to `CNC(=O)[C@@H](NC(=O)c1ccc(F)cc1C(F)(F)F)[C@H](O)c1cccc(Cl)c1C` [Compound 3.11], for which, in data set [3] (application rate 1.00 kg/ha), the “post-emergence action against green foxtail” value was “very good”. Also, the “post-emergence action against pig weed” value in data set [4] (application rate 1.00 kg/ha) is on record as “very good”. Further, the “post-emergence action against lambsquarters” value in data set [5] (application rate 1.00 kg/ha) is given as “very good”.

Regarding `CNC(=O)C(NC(=O)c1ccc(F)cc1C(F)(F)F)C(OC(=O)N(C)C)c1cccc(NS(C)(=O)=O)c1` (racemic) [Compound 3.128], the “post-emergence action against green foxtail” value in data set [3] (application rate 1.00 kg/ha) is recorded as “very good”. The “post-emergence action against pig weed” value in data set [4] (application rate 1.00 kg/ha) was “very good”. Besides, the “post-emergence action against lambsquarters” value in data set [5] (application rate 1.00 kg/ha) is recorded as “very good”.

On to `CNC(=O)C(NC(=O)c1ccc(F)cc1C(F)(F)F)C(OC(=O)N(C)C)c1ccccc1COC(=O)N(C)C` (stereo not shown) [Compound 3.131], for which, in data set [6] (application rate 0.5 kg/ha), the “post-emergence action on black bindweed” value is “very good”. In data set [2] (application rate 0.5 kg/ha), the “post-emergence control of cleavers harrif” value is reported as “very good”. In data set [4] (application rate 0.5 kg/ha), the “post-emergence action against pig weed” value was “very good”. The “post-emergence action against lambsquarters” value in data set [5] (application rate 0.5 kg/ha) is “very good”.

As to `CNC(=O)C(NC(=O)c1cccc([N+](=O)[O-])c1C)C(O)c1ccccc1` (racemic) [Compound 5.20], in data set [1], the “post-emergence action on velvet leaf” value is on record as “very good”.

Turning to `CC[Si](CC)(CC)OCc1ccccc1C(O[Si](CC)(CC)CC)C(NC(=O)c1ccc(F)cc1C(F)(F)F)C(=O)NC` (stereo not shown) [Compound 3.152], in data set [2] (application rate 1.0 kg/ha), the “post-emergence control of cleavers harrif” value is listed as “very good”. For the same molecule, in data set [3] (application rate 1.00 kg/ha), the “post-emergence action against green foxtail” value is listed as “very good”. Also, in data set [4] (application rate 1.00 kg/ha), the “post-emergence action against pig weed” value is “very good”. In data set [5] (application rate 1.00 kg/ha), the “post-emergence action against lambsquarters” value is “very good”.

As to `CNC(=O)C(NC(=O)c1ccc(F)cc1C(F)(F)F)C(O)c1ccccc1[N+](=O)[O-]` (racemic) [Compound 3.67], the “post-emergence action against green foxtail” value in data set [3] (application rate 1.00 kg/ha) was “very good”. In data set [4] (application rate 1.00 kg/ha), the “post-emergence action against pig weed” value was “very good”. Moreover, the “post-emergence action against lambsquarters” value in data set [5] (application rate 1.00 kg/ha) was “very good”.

For the molecule `CNC(=O)C(NC(=O)c1ccc(F)cc1C(F)(F)F)C(OC(=O)N(C)C)c1ccccc1C` (stereo not shown) [Compound 3.28], in data set [3] (application rate 1.00 kg/ha), the “post-emergence action against green foxtail” value is given as “very good”. For the same molecule, the “post-emergence action against pig weed” value in data set [4] (application rate 1.00 kg/ha) is “very good”. Further, the “post-emergence action against lambsquarters” value in data set [5] (application rate 1.00 kg/ha) is reported as “very good”.

Turning to `CNC(=O)C(NC(=O)c1ccc(F)cc1C(F)(F)F)C(O[Si](C)(C)C(C)(C)C)c1ccccc1` (racemic) [Compound 3.154], in data set [6] (application rate 1.00 kg/ha), the “post-emergence action on black bindweed” value is “very good”. Moreover, the “post-emergence control of cleavers harrif” value in data set [2] (application rate 1.0 kg/ha) is “very good”. In data set [3] (application rate 1.00 kg/ha), the “post-emergence action against green foxtail” value was “very good”. Also, in data set [4] (application rate 1.00 kg/ha), the “post-emergence action against pig weed” value is listed as “very good”. Also, the “post-emergence action against lambsquarters” value in data set [5] (application rate 1.00 kg/ha) is listed as “very good”.

On to `CNC(=O)[C@@H](NC(=O)c1ccc(F)cc1C(F)(F)F)[C@H](OC(=O)NS(=O)(=O)C(F)(F)F)c1cccc(F)c1C` [Compound 3.137], for which the “post-emergence action on black bindweed” value in data set [6] (application rate 1.00 kg/ha) is “very good”. For the same molecule, the “post-emergence action against pig weed” value in data set [4] (application rate 1.00 kg/ha) is on record as “very good”. Also, the “post-emergence action against lambsquarters” value in data set [5] (application rate 1.00 kg/ha) is on record as “very good”.
